Results: patent US5945413A, “Aspartyl protease inhibitors” (Vertex Pharmaceuticals Incorporated, priority 1996, dated 1999)

target: HIV-1 protease (Human immunodeficiency virus type 1 group M subtype B, UniProt P04585); test: inhibition constants against HIV-1 protease (method of Pennington et al.); assay type: biochemical; details: not given
Source text: We have measured the inhibition constants of each compound against HIV-1 protease using the method described essentially by M. W. Pennington et al., Peptides 1990, Gimet, E. and D. Andrew, Eds., Escom, Leiden, Netherlands (1990); and the method described essentially by Partaledis et al., J. Virol., 69, pp. 5228-35 (1995).
Using the method described by Pennington et al. (supra), we obtained inhibition constants for the following compounds of this invention: […]

| Structure (SMILES) | Ki [nM] |
| --- | --- |
| COc1ccc(S(=O)(=O)N(CC(O)CN2C(=O)CC(O)[C@@H]2Cc2ccccc2)CC2CCCC2)cc1 (stereo partly shown) [Compound 19] | 3000 |
| COc1ccc(S(=O)(=O)N(CC(O)CN2C(=O)C3(CCCC3)NC[C@@H]2Cc2ccccc2)CC2CCCC2)cc1 (stereo partly shown) [Compound 32] | 160 |
| COc1ccc(S(=O)(=O)N(CC(O)CN2C(=O)CC[C@@H]2Cc2ccccc2)CC2CCCC2)cc1 (single isomer, unassigned) [Compound 15] | 550 |
| COc1ccc(S(=O)(=O)N(CC(O)CN2C(=O)C(N)C[C@@H]2Cc2ccccc2)CC2CCCC2)cc1 (stereo partly shown) [Compound 21] | > 20000 |
| COc1ccc(S(=O)(=O)N(CC2CCCC2)C[C@@H](O)CN2C(=O)C3(CCCCC3)OC[C@@H]2Cc2ccccc2)cc1 [Compound 47] | 20 |
| COc1ccc(S(=O)(=O)N(CC(O)CN2C(=O)C(C)(C)NC[C@@H]2Cc2ccccc2)CC2CCCC2)cc1 (stereo partly shown) [Compound 31] | 390 |
| COc1ccc(S(=O)(=O)N(CC(O)CN2C(=O)N(C)C[C@@H]2Cc2ccccc2)CC2CCCC2)cc1 (stereo partly shown) [Compound 13] | 225 |
| COc1ccc(S(=O)(=O)N(CC(O)CN2C(=O)C(CC(COC(C)=O)OC(C)=O)C[C@@H]2Cc2ccccc2)CC2CCCC2)cc1 (stereo partly shown) [Compound 25] | 83 |
| COc1ccc(S(=O)(=O)N(CC(O)CN2[C@@H](Cc3ccccc3)CN(C)S2(=O)=O)CC2CCCC2)cc1 (stereo partly shown) [Compound 10] | > 10000 |
| COC(=O)C1NC[C@H](Cc2ccccc2)N(CC(O)CN(CC2CCCC2)S(=O)(=O)c2ccc(OC)cc2)C1=O (stereo partly shown) [Compound 33] | 1100 |
| COc1ccc(S(=O)(=O)N(CC(O)CN2C(=O)N(Cc3ccccc3)C[C@@H]2Cc2ccccc2)CC2CCCC2)cc1 (stereo partly shown) [Compound 14] | 16 |
| COc1ccc(S(=O)(=O)N(CC2CCCC2)C[C@@H](O)CN2C(=O)C(C)C[C@@H]2Cc2ccccc2)cc1 (stereo partly shown) [Compound 16] | 56 |
| CCC1C[C@H](Cc2ccccc2)N(CC(O)CN(CC2CCCC2)S(=O)(=O)c2ccc(OC)cc2)C1=O (stereo partly shown) [Compound 18] | 15 |
| COc1ccc(S(=O)(=O)N(CC2CCCC2)C[C@@H](O)CN2C(=O)C(Cc3ccccc3)C[C@@H]2Cc2ccccc2)cc1 (stereo partly shown) [Compound 20] | 1.5 |
| COc1ccc(S(=O)(=O)N(CC(O)CN2C(=O)[C@H](C)NC[C@@H]2Cc2ccccc2)CC2CCCC2)cc1 (stereo partly shown) [Compound 30] | > 15000 |
| COC(=O)C1(C)NC[C@H](Cc2ccccc2)N(CC(O)CN(CC2CCCC2)S(=O)(=O)c2ccc(OC)cc2)C1=O (stereo partly shown) [Compound 34] | 950 |
| COc1ccc(S(=O)(=O)N(CC(O)CN2C(=O)C(CC3COCO3)C[C@@H]2Cc2ccccc2)CC2CCCC2)cc1 (stereo partly shown) [Compound 24] | 350 |
| COc1ccc(S(=O)(=O)N(CC(O)CN2C(=O)C(C)(C)C[C@@H]2Cc2ccccc2)CC2CCCC2)cc1 (stereo partly shown) [Compound 17] | 115 |
| COc1ccc(S(=O)(=O)N(CC(O)CN2C(=O)C(CC3COC(=O)O3)C[C@@H]2Cc2ccccc2)CC2CCCC2)cc1 (stereo partly shown) [Compound 26] | 58 |
| COc1ccc(S(=O)(=O)N(CC(O)CN2C(=O)C(NC(C)=O)C[C@@H]2Cc2ccccc2)CC2CCCC2)cc1 (stereo partly shown) [Compound 22] | 600 |
| C=CCC1C[C@H](Cc2ccccc2)N(C[C@H](O)CN(CC2CCCC2)S(=O)(=O)c2ccc(OC)cc2)C1=O (stereo partly shown) [Compound 7] | 9 |
| COc1ccc(S(=O)(=O)N(CC(O)CN2C(=O)C(CC(O)CO)C[C@@H]2Cc2ccccc2)CC2CCCC2)cc1 (stereo partly shown) [Compound 23] | 70 |
| CC(C)CN1CC(Cc2ccccc2)N(CC(O)CN(CC2CCCC2)S(=O)(=O)c2cccc(N)c2)C1=O (stereo not shown) [Compound 12] | > 10000 |
| COc1ccc(S(=O)(=O)N(CC(O)CN2[C@@H](Cc3ccccc3)CCS2(=O)=O)CC2CCCC2)cc1 (stereo partly shown) [Compound 11] | > 10000 |
| COc1ccc(S(=O)(=O)N(CC(O)CN2C(=O)COC[C@@H]2Cc2ccccc2)CC2CCCC2)cc1 (stereo partly shown) [Compound 28] | 1400 |
| COc1ccc(S(=O)(=O)N(CC(O)CN2C(=O)CNC[C@@H]2Cc2ccccc2)CC2CCCC2)cc1 (stereo partly shown) [Compound 27] | 3000 |
| C=CCN1C[C@H](Cc2ccccc2)N(C[C@H](O)CN(CC2CCCC2)S(=O)(=O)c2ccc(OC)cc2)C1=O [Compound 1] | 160 |

same assay, conditions: Inhibition constant measured at pH 6.0

| Structure (SMILES) | Ki [nM] |
| --- | --- |
| CC(C)(C)NC(=O)C1CSCN1C(=O)C(=O)CN1C(=O)CCC1Cc1ccccc1 (stereo not shown) [Compound 111] | > 10000 |
| CC(C)(C)NC(=O)C1CSCN1C(=O)C(=O)CN1C(=O)C(C)(C)NC[C@@H]1Cc1ccccc1 (stereo partly shown) [Compound 105] | > 10000 |
| CC(C)(C)NC(=O)C1C[C@@H]2CCCC[C@@H]2CN1CC(O)CN1C(=O)C(C)(C)NC[C@@H]1Cc1ccccc1 (stereo partly shown) [Compound 5] | > 10000 |
| C=CCN1C[C@H](Cc2ccccc2)N(CC(O)CN2C[C@H]3CCCC[C@H]3CC2C(=O)NC(C)(C)C)C1=O (stereo partly shown) [Compound 2] | 180 |
| C=CCN1C[C@H](Cc2ccccc2)N(CC(O)CN2CCN(Cc3cccnc3)CC2C(=O)NC(C)(C)C)C1=O (stereo partly shown) [Compound 3] | 1800 |
| CC(C)(C)NC(=O)C1CSCN1C(=O)C(=O)CN1C(=O)C(Cc2ccccc2)CC1Cc1ccccc1 (stereo not shown) [Compound 109] | 250 |
| C=CCC1C[C@H](Cc2ccccc2)N(CC(O)CN2C[C@H]3CCCC[C@H]3CC2C(=O)NC(C)(C)C)C1=O (stereo partly shown) [Compound 8] | 5 |
| C=CCC1C[C@H](Cc2ccccc2)N(CC(O)CN2CCN(Cc3cccnc3)CC2C(=O)NC(C)(C)C)C1=O (stereo partly shown) [Compound 9] | 90 |
| CC(C)(C)NC(=O)C1C[C@@H]2CCCC[C@@H]2CN1CC(O)CN1C(=O)N(Cc2ccccc2)C[C@@H]1Cc1ccccc1 (stereo partly shown) [Compound 76] | 250 |
| CCCC1CC(Cc2ccccc2)N(CC(=O)C(=O)N2CSCC2C(=O)NC(C)(C)C)C1=O (stereo not shown) [Compound 112] | 8600 |
| C=CCN1CC(Cc2ccccc2)N(CC(O)CC(Cc2ccccc2)C(=O)NC2c3ccccc3CC2O)C1=O (stereo not shown) [Compound 78] | 10 |
| CC(C)(C)NC(=O)C1C[C@@H]2CCCC[C@@H]2CN1CC(O)CN1[C@@H](Cc2ccccc2)CN(Cc2ccccc2)S1(=O)=O (stereo partly shown) [Compound 77] | 560 |
| CC(C)(C)NC(=O)C1CSCN1C(=O)C(O)CN1C(=O)C(Cc2ccccc2)CC1Cc1ccccc1 (stereo not shown) [Compound 102] | 1200 |
